{"source": "patent US12275835B1", "about": "“High clarity antimicrobial resins” (Phoenix Plastics L.P., priority 2020, dated 2025)", "origin": "cited, not measured here", "key": {"Gram-positive bacteria": {"test_system": "Gram-positive bacteria", "conditions": "within 30 seconds"}, "Gram-negative bacteria": {"test_system": "Gram-negative bacteria", "conditions": "within 30 seconds"}}, "data": [{"smiles": "N=C(NCCCCCCNC(=N)NC(=N)Nc1ccc(Cl)cc1)NC(=N)Nc1ccc(Cl)cc1", "note": "[chlorhexidine]", "values": [{"measurement": "kill of Gram-positive bacteria", "setting": "Gram-positive bacteria", "result": "~100", "unit": "%"}, {"measurement": "kill of Gram-negative bacteria", "setting": "Gram-negative bacteria", "result": "~100", "unit": "%"}]}]}
